Converted amounts (≈) assume the structure as drawn. Like-named read-outs stand apart in the source and are kept apart here.

Type in all cases: cell-based
Experiment [1] has as its system Carbapenem-resistant Pseudomonas aeruginosa (CRPA, Pseudomonas aeruginosa). Kind of experiment: Test Example 2: antibacterial activity test (MIC). The protocol: (§1) 1. The test compounds were dissolved in sterile normal saline, vortexed for uniformly mixing, and diluted in a 2-fold dilution with the sterile normal saline (11 concentration points in total). The test concentration range was 32-0.031 μg/mL, and two duplicate wells were set for each concentration. Additional wells without drug dosing were set as growth controls. 2. 4 μL of the diluent was added to 196 μL of the bacterial suspension in a 96-well plate (the bacterial count in the bacterial suspension was 2-8×10^5 colony forming units/mL). 3.
(§2) The minimum inhibitory concentration (MIC) assay was performed with reference to the Clinical and Laboratory Standards Institute (CLSI) guidelines.

The test system of experiment [2] is Control strain Escherichia coli ATCC 25922. Kind of experiment: Test Example 2: antibacterial activity test (MIC). The protocol:
as §1, §2

Experiment [3] deals with Control Strain Pseudomonas aeruginosa ATCC 27853. The experiment is described as follows: Test Example 2: antibacterial activity test (MIC). How it is done: as §1, §2
Experiment [4] relates to Carbapenem-resistant Acinetobacter baumannii (CRAB, Acinetobacter baumannii). Kind of experiment: Test Example 2: antibacterial activity test (MIC). The protocol: as §1, §2
Experiment [5] relates to Carbapenem-resistant Enterobacteriaceae (CRE, Klebsiella pneumoniae). Kind of experiment: Test Example 2: antibacterial activity test (MIC). How it is done:
as §1, §2

Experiment [6] has as its system Carbapenem-resistant Acinetobacter baumannii (CRAB). The experiment is described as follows: Test Example 1: antibacterial activity test (MIC). How it is done:
(§3) The test compounds were diluted in a gradient and used for an MIC assay on the test strains. The test compounds at an initial assay concentration of 32 μg/mL were diluted in a 2-fold gradient (11 concentration points in total), and two duplicate wells were set for each concentration. Additional wells without drug dosing were set as growth controls. The minimum inhibitory concentration (MIC) assay was performed with reference to the Clinical and Laboratory Standards Institute (CLSI) guidelines.
(§4) After the frozen strains were subcultured, a single colony was picked and re-suspended in normal saline or sterile water in a tube. The bacterial suspension was vortexed and adjusted to 0.5 McF using a spectrophotometer at the wavelength of 530 nm. The bacterial solution was taken by a pipette, added to a culture medium, diluted and mixed well, and seeded to a bacterial assay plate.
(§5) The 96-well plate was affixed with a disposable sealing film, shaken and mixed well, and visually observed using a plate reader. The minimum concentration of the compounds capable of inhibiting the growth of bacteria was defined as MIC as compared to the growth controls.

For experiment [7], the system named is Carbapenem-resistant Pseudomonas aeruginosa (CRPA). Kind of experiment: Test Example 1: antibacterial activity test (MIC). The protocol: as §3, §4, §5
Experiment [8] deals with Carbapenem-resistant Enterobacteriaceae (CRE). Kind of experiment: Test Example 1: antibacterial activity test (MIC). How it is done:
as §3, §4, §5

For `C[C@H](CN(CCCNC(=O)c1ccc(O)c(O)c1Cl)C(=O)c1ccc(O)c(O)c1Cl)[N+]1(CC2=C(C(=O)O)N3C(=O)[C@@H](NC(=O)/C(=N\OC(C)(C)C(=O)O)c4csc(N)n4)[C@H]3SC2)CCCC1` [Compound 11], the MIC (in general, the lowest concentration that inhibits growth of the organism) in experiment [1] (read-out: ID-CAMHB, MIC, ID-CAMHB, FDA-CDC AR-BANK #0439 (aac(6′)-Il, aadA1b, BCR1, IMP-18, OXA-50)) is 0.5 µg/mL; in experiment [1] (read-out: ID-CAMHB, MIC, ID-CAMHB, FDA-CDC AR-BANK #0441 (KPC-2)), 8 µg/mL; in experiment [1] (read-out: ID-CAMHB, MIC, ID-CAMHB, FDA-CDC AR-BANK #0444 (aac(6′)-Il, dfrB5, OXA-4, tet(G), VIM-2)), 4 µg/mL; in experiment [1] (read-out: ID-CAMHB, MIC, ID-CAMHB, FDA-CDC AR-BANK #0457 (aadA6, VIM-2)) it was 0.25 µg/mL; in experiment [2] (ATCC25922, read-out: ID-CAMHB, MIC), 0.125 µg/mL; in experiment [3] (ATCC27853, read-out: ID-CAMHB, MIC), 0.0625 µg/mL. Further, the MIC in experiment [4] (read-out: ID-CAMHB, MIC, ID-CAMHB, FDA-CDC AR-BANK #0036 (strB, OXA-65, OXA-24, strA, sul2)) came out at 0.5 µg/mL; in experiment [4] (read-out: ID-CAMHB, MIC, ID-CAMHB, FDA-CDC AR-BANK #0052 (OXA-58, OXA-100, sul2)), 0.125 µg/mL; in experiment [4] (read-out: ID-CAMHB, MIC, ID-CAMHB, FDA-CDC AR-BANK #0063 (OXA-23, OXA-65, OXA-24, sul2)) it was 4 µg/mL; in experiment [4] (read-out: ID-CAMHB, MIC, ID-CAMHB, FDA-CDC AR-BANK #0070 (OXA-58, OXA-100, sul2)), 0.25 µg/mL; in experiment [4] (read-out: ID-CAMHB, MIC, ID-CAMHB, FDA-CDC AR-BANK #0101 (strB, OXA-65, OXA-24, strA, sul2)), 1 µg/mL; in experiment [5] (read-out: ID-CAMHB, MIC, ID-CAMHB, FDA-CDC AR-BANK #0361 (TEM-1; SHV-12; KPC-2)) it was 1 µg/mL. In addition, the MIC in experiment [5] (read-out: ID-CAMHB, MIC, ID-CAMHB, FDA-CDC AR-BANK #0362 (TEM-1; SHV-11; KPC-2)) was determined as 0.25 µg/mL; in experiment [5] (read-out: ID-CAMHB, MIC, ID-CAMHB, FDA-CDC AR-BANK #0363 (TEM-1; SHV-12; KPC-2)), 0.5 µg/mL; in experiment [5] (read-out: ID-CAMHB, MIC, ID-CAMHB, FDA-CDC AR-BANK #0438 (aph(3′)-Ia, dfrA12, KPC-3, OmpK35, oqxA, oqxB, SHV-11)), 1 µg/mL; in experiment [5] (read-out: ID-CAMHB, MIC, ID-CAMHB, FDA-CDC AR-BANK #0453 (KPC-3, OmpK35, oqxA, oqxB, SHV-11, TEM-1B)), 1 µg/mL.
For `C[C@@H](O)[C@H]1C(=O)N2C(C(=O)O)=C(S[C@@H]3CN[C@H](C(=O)N(C)C)C3)[C@H](C)[C@H]12` [Meropenem, reference compound], the MIC was > 32 µg/mL in experiment [1] (CAMHB, FDA-CDC AR-BANK #0439, read-out: CAMHB MIC); > 32 µg/mL in experiment [1] (CAMHB, FDA-CDC AR-BANK #0441, read-out: CAMHB MIC); > 32 µg/mL in experiment [1] (CAMHB, FDA-CDC AR-BANK #0444, read-out: CAMHB MIC); > 32 µg/mL in experiment [1] (CAMHB, FDA-CDC AR-BANK #0457, read-out: CAMHB MIC); ≤ 0.0312 µg/mL in experiment [2] (ATCC25922, CAMHB, ATCC 25922, read-out: CAMHB MIC); 0.5 µg/mL (≈ 1.3 µM) in experiment [3] (ATCC27853, CAMHB, ATCC 27853, read-out: CAMHB MIC). Besides, the MIC was > 32 µg/mL in experiment [4] (CAMHB, FDA-CDC AR-BANK #0036, read-out: CAMHB MIC); 16 µg/mL (≈ 41.7 µM) in experiment [4] (CAMHB, FDA-CDC AR-BANK #0052, read-out: CAMHB MIC); > 32 µg/mL in experiment [4] (CAMHB, FDA-CDC AR-BANK #0063, read-out: CAMHB MIC); 8 µg/mL (≈ 20.9 µM) in experiment [4] (CAMHB, FDA-CDC AR-BANK #0070, read-out: CAMHB MIC); > 32 µg/mL in experiment [4] (CAMHB, FDA-CDC AR-BANK #0101, read-out: CAMHB MIC); 16 µg/mL (≈ 41.7 µM) in experiment [5] (read-out: CAMHB MIC, CAMHB, FDA-CDC AR-BANK #0361). Moreover, the MIC in experiment [5] (read-out: CAMHB MIC, CAMHB, FDA-CDC AR-BANK #0362) is > 32 µg/mL; in experiment [5] (read-out: CAMHB MIC, CAMHB, FDA-CDC AR-BANK #0363), 32 µg/mL (≈ 83.4 µM); in experiment [5] (read-out: CAMHB MIC, CAMHB, FDA-CDC AR-BANK #0438), > 32 µg/mL; in experiment [5] (read-out: CAMHB MIC, CAMHB, FDA-CDC AR-BANK #0453) it was > 32 µg/mL; in experiment [6] (CRAB strain No. 100085) it was 32 µg/mL (≈ 83.4 µM); in experiment [6] (CRAB strain No. 100333) it was > 32 µg/mL. Further, the MIC in experiment [6] (CRAB strain No. 110440) is 32 µg/mL (≈ 83.4 µM); in experiment [6] (CRAB strain No. 110477), > 32 µg/mL; in experiment [6] (CRAB strain No. 110517), 32 µg/mL (≈ 83.4 µM); in experiment [7] (CRPA strain No. 100110) it was 32 µg/mL (≈ 83.4 µM); in experiment [7] (CRPA strain No. 110163) it was 24 µg/mL (≈ 62.6 µM); in experiment [7] (CRPA strain No. 110224), 16 µg/mL (≈ 41.7 µM). For the same compound, the MIC was 4 µg/mL (≈ 10.4 µM) in experiment [7] (CRPA strain No. 110358); 12 µg/mL (≈ 31.3 µM) in experiment [7] (CRPA strain No. 110390); > 32 µg/mL in experiment [8] (CRE strain No. 100109); > 32 µg/mL in experiment [8] (CRE strain No. 100186); 32 µg/mL (≈ 83.4 µM) in experiment [8] (CRE strain No. 110502); 32 µg/mL (≈ 83.4 µM) in experiment [8] (CRE strain No. 110525). This compound also returned an MIC in experiment [8] (CRE strain No. 311277) of 32 µg/mL (≈ 83.4 µM).
